Data: publication PMC7291522 (Thrombosis Journal, 2020)

Legend:
blood coagulation = experiment: Activated partial thromboplastin time (aPTT), HemosIL SynthASil reagent; assay type: in vivo, human; details: 30 mg edoxaban, Day 3
Experimental: (§1) Blood was collected in a vacuum blood collection tube containing 3.2% sodium citrate, and the schedule for the blood sample collection is shown in Table 1. Blood coagulation marker PT was measured by PT reagent Thrombocheck-PT in system CS-200i (Sysmex Corporation, Japan); aPTT by aPTT reagent HemosIL SynthASil in system ACL TOP Base (IL, Japan; Instrumentation Laboratory, USA) and F1 + 2 by ELISA Enzygnost F1 + 2 monoclonal reagent in system Behring ELISA Processor III and DiaSorin (BIT Analytical Instruments GmbH, Germany). These assays were carried out at LSI Medience Corporation (Tokyo, Japan). We measured PRU with VerifyNow system (Instrumentation Laboratory, Bedford, MA, USA) at Sumida Hospital.

platelet aggregation = experiment: P2Y12 reaction units (PRU), VerifyNow system; assay type: in vivo, human; details: 30 mg edoxaban alone, Day 3
Experimental: as §1

[1] = Plasma edoxaban pharmacokinetics (LC-MS/MS, noncompartmental analysis); details: 30 mg edoxaban alone, Day 3; for AUC / Cmax / Tmax: male, human, in vivo, 30 mg; for AUC: AUCtau,ss of edoxaban; for Cmax: Cmax,ss of edoxaban; for Tmax: tmax,ss of edoxaban
Experimental: Plasma samples were obtained by centrifugation, and the samples were immediately frozen at − 20 °C or lower.
Summary statistics were calculated for baseline and postdose values for the primary endpoint of BT and secondary endpoints of PD indices (PT, aPTT, F1 + 2, PRU) for each target population. […] 8.1 based on Model 1200 (Extravascular). AUCtau,ss was calculated by the linear-Log trapezoidal method.
For the secondary endpoints analysis, we used the logarithmically converted PK parameters (Cmax,ss, AUCtau,ss, tmax,ss) as dependent variables in a linear mixed model with fixed and variable effects.

[2] = test system: healthy elderly Japanese male subjects; experiment: Bleeding time (BT) by the Ivy method; details: 30 mg edoxaban once daily for 3 days, Day 3, 3 h after administration
Text: (§2) This study was a randomized, open-label, parallel-group, repeated-dose study conducted at a single center.
(§3) We measured BT by the Ivy method [12] using a needle type of BD Microtainer Contact-Activated Lancet device (Becton, Dickinson and Company, USA). The incision was made in the lateral aspect of the forearm by puncturing at one arbitrary site with the device. After the incision, we blotted the blood every 30 s with filter paper until the bleeding reached hemostasis and recorded the time from the puncture to the end of bleeding. When the time to hemostasis exceeded 10 min, it was recorded as such, ending the observation. […] Baseline BT was measured on the day of admission at approximately the same time of day as the BT evaluations on Day 3 and Day 8, 3 hours after the administration of study drug(s).
(§4) For the primary endpoint analysis, a logarithmically converted value of BT for each sample was the dependent variable in a linear mixed model with fixed and random effects.

[3] = test system: healthy elderly Japanese male subjects; experiment: Safety: adverse events in the clinical pharmacology study; details: 30 mg edoxaban alone, 24 participants
[4] = test system: healthy elderly Japanese male subjects; details: in vivo
Text: as §2, §3, §4

CN1CCc2nc(C(=O)N[C@@H]3C[C@@H](C(=O)N(C)C)CC[C@@H]3NC(=O)C(=O)Nc3ccc(Cl)cn3)sc2C1 [Edoxaban, edoxaban]
aPTT, mean (blood coagulation; Group 1, baseline 31.9): 38.0 s
aPTT, mean (blood coagulation; Group 2, baseline 34.2): 39.9 s
Effect on PRU (platelet aggregation): essentially had no effect
tmax,ss of edoxaban, Mean (SD) ([1]; Group 2, n = 12): 1.0 (0.84) h
AUC ([1]; Mean (SD), Group 1, n = 12): 1060 ng·h/mL
AUC ([1]; Mean (SD), Group 2, n = 12): 1070 ng·h/mL
AUC ([1]; Median (IQR), Group 1, n = 12): 1020 ng·h/mL
AUC ([1]; Median (IQR), Group 2, n = 12): 992 ng·h/mL
Cmax ([1]; Mean (SD), Group 1, n = 12): 216 ng/mL
Cmax ([1]; Mean (SD), Group 2, n = 12): 191 ng/mL
Cmax ([1]; Median (IQR), Group 1, n = 12): 200 ng/mL
Cmax ([1]; Median (IQR), Group 2, n = 12): 170 ng/mL
Tmax ([1]; Mean (SD), Group 1, n = 12): 72 min
Tmax ([1]; Median (IQR), Group 1, n = 12): 45 min
Tmax ([1]; Median (IQR), Group 2, n = 12): 30 min
Bleeding time, Mean (SD) ([2]; Group 1, n = 12): 3.5 (0.6) min
Bleeding time, Median (IQR) ([2]; Group 1, n = 12): 3.5 (3.0–4.0) min
Bleeding time, Mean (SD) ([2]; Group 2, n = 12): 4.7 (1.6) min
Bleeding time, Median (IQR) ([2]; Group 2, n = 12): 4.5 (3.3–6.0) min
Positive results in the fecal occult blood test (number) [3]: four

CC(=O)Oc1cc2c(s1)CCN(C(C(=O)C1CC1)c1ccccc1F)C2 (stereo not drawn) [prasugrel]
Dose dependence of the effect of prasugrel on BT [4]: dose-dependent
